From US20070129367A1, “Pyridine derivatives as cb2 receptor modulators” (priority 2002, published 2007) come the findings set out here.

In the assay the target is T1, human cannabinoid CB2 receptor (Homo sapiens, UniProt P34972).
T1 construct: expressed in transfected cells; host or cells: Saccharomyces cerevisiae strain MMY23 (cassette integrated at the ura3 locus, GPD promoter)
As to the kind of experiment: Cannabinoid CB2 receptor agonist activity in yeast (Saccharomyces cerevisiae) cells expressing the receptor, FDGlu fluorescence readout.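 For Emax: percent of the maximal response of the reference agonist HU210.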 The assay is classed as cell-based. Conditions: for Emax: read-out: efficacy (Emax) at the cloned human cannabinoid CB2 receptor. As for the experimental part:
Determination of Cannabinoid CB2 Receptor Agonist Activity
The cannabinoid CB2 receptor agonist activity of the compounds of formula (I) was determined in accordance with the following experimental method.
Yeast (Saccharomyces cerevisiae) cells expressing the human cannabinoid CB2 receptor were generated by integration of an expression cassette into the ura3 chromosomal locus of yeast strain MMY23. This cassette consisted of DNA sequence encoding the human CB2 receptor flanked by the yeast GPD promoter to the 5′ end of CB2 and a yeast transcriptional terminator sequence to the 3′ end of CB2. MMY23 expresses a yeast/mammalian chimeric G-protein alpha subunit in which the C-terminal 5 amino acids of Gpa1 are replaced with the C-terminal 5 amino acids of human Gαi3 (as described in Brown et aL (2000), Yeast 16:11-22). Cells were grown at 30° C. in liquid Synthetic Complete (SC) yeast media (Guthrie and Fink (1991), Methods in Enzymology, Vol. 194) lacking uracil, tryptophan, adenine and leucine to late logarithmic phase (approximately 6 OD600/ml).
Agonists were prepared as 10 mM stocks in DMSO. […] Agonist solutions in DMSO (1% final assay volume) were transferred into black, clear bottom, microtitre plates from NUNC (96- or 384-well). […] This mixture (50 ul per well for 384-well plates, 200 ul per well for 96-well plates) was added to agonist in the assay plates (Multidrop 384, Labsystems). After incubation at 30° C. for 24 hours, fluorescence resulting from degradation of FDGlu to fluorescein due to exoglucanase, an endogenous yeast enzyme produced during agonist-stimulated cell growth, was determined using a Spectrofluor microtitre plate reader (Tecan; excitation wavelength: 485 nm; emission wavelength: 535 nm). Fluorescence was plotted against compound concentration and iteratively curve fitted using a four parameter fit to generate a concentration effect value. […] Equieffective molar ratio (EMR) values were calculated from the equation EMR=EC50 [compound X]/EC50 [HU210]
Where EC50 [compound X] is the EC50 of compound X and EC50 [HU210] is the EC50 of HU210.

The mark [1] stands for this setting: agonist activity, yeast cells, 24 hours at 30° C., read-out: EC50 at the cloned human cannabinoid CB2 receptor.

Like-named read-outs stand apart in the source and are kept apart here.

T1 sequence (P34972 whole entry): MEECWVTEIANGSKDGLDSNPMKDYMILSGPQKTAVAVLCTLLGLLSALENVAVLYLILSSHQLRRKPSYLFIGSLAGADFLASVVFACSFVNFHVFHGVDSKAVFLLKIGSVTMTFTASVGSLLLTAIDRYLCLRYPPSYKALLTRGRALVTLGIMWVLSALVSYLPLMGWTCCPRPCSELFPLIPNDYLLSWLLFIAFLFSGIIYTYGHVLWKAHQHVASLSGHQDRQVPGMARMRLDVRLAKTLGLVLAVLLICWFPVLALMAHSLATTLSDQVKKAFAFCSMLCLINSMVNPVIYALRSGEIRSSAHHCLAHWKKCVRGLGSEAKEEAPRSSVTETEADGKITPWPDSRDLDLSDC

On to `O=C(NCc1ccncc1)c1cnc(Nc2cccc(Cl)c2)cc1C(F)(F)F` [Example 1, 2-(3-Chlorophenylamino)-4-trifluoromethylpyridine-5-carboxylic acid (pyridin-4-ylmethyl) amide], for which the EC50 was below 300 nM and the Emax was above 50%.

Regarding `O=C(NCc1ccccc1)c1cnc(Nc2cccc(Cl)c2)cc1C(F)(F)F` [Example 2, 2-(3-Chlorophenylamino)-4-trifluoromethylpyridine-5-carboxylic acid benzylamide], the EC50 was below 300 nM and the Emax was above 50%.

Consider `CC(C)c1cc(Nc2cccc(Cl)c2)ncc1C(=O)NCc1ccc(F)cc1` [Example 3, 6-(3-Chlorophenylamino)-N-(4-fluorobenzyl)-4-isopropyl-nicotinamide], for which the Emax is above 50%.

For the compound `CC(C)c1cc(Nc2cccc(Cl)c2)ncc1C(=O)NCc1ccccc1` [Example 4, N-Benzyl-6-(3-chloro-phenylamino)-4-isopropyl-nicotinamide], the concentration for a half-maximal effect (EC50) was below 300 nM and the Emax is above 50%.

For `CC(C)c1cc(Nc2cccc(Cl)c2)ncc1C(=O)NCc1ccc(C#N)cc1` [Example 5, 6-(3-Chloro-phenylamino)-N-(4-cyano-benzyl)-4-isopropyl-nicotinamide], the EC50 lay within 300 to 1000 nM and the Emax is above 50%.

With `COc1ccc(CNC(=O)c2cnc(Nc3cccc(Cl)c3)cc2C(C)C)cc1` [Example 6, 6-(3-Chloro-phenylamino)-4-isopropyl-N-(4-methoxy-benzyl)-nicotinamide], the EC50 lay within 300 to 1000 nM and the Emax is above 50%.

`CC(C)c1cc(Nc2cccc(Cl)c2)ncc1C(=O)NCc1ccc(F)c(F)c1` [Example 7, 6-(3-Chloro-phenylamino)-N-(3,4-difluoro-benzyl)-4-isopropyl-nicotinamide]: the concentration for a half-maximal effect (EC50) lay within 300 to 1000 nM and the maximal response (Emax) is above 50%.

Turning to `CC(C)c1cc(Nc2cccc(Cl)c2)ncc1C(=O)NCc1ccc(C(N)=O)cc1` [Example 8, N-(4-Carbamoyl-benzyl)-6-(3-chloro-phenylamino)-4-isopropyl-nicotinamide], the EC50 under setting [1] was in the range of 300 to 1000 nM.

Regarding `CC(C)c1cc(Nc2cccc(C(F)(F)F)c2)ncc1C(=O)NCc1ccc(F)cc1` [Example 14, N-(4-Fluoro-benzyl)-4-isopropyl-6-(3-trifluoromethyl-phenylamino)-nicotinamide], the concentration for a half-maximal effect (EC50) lay in the range of 300 to 1000 nM and the Emax was above 50%.

`CC(C)c1cc(Nc2ccc(F)c(Cl)c2)ncc1C(=O)NCc1ccc(F)cc1` [Example 15, 6-(3-Chloro-4-fluoro-phenylamino)-N-(4-fluoro-benzyl)-4-isopropyl-nicotinamide]: the EC50 under setting [1] was below 300 nM.

With `Cc1cccc(Nc2cc(C(C)C)c(C(=O)NCc3ccc(F)cc3)cn2)c1C#N` [Example 16, 6-(2-Cyano-3-methyl-phenylamino)-N-(4-fluoro-benzyl)-4-isopropyl-nicotinamide], the EC50 was in the range of 300 to 1000 nM and the Emax was above 50%.

On to `CC(C)c1cc(Nc2cccc(F)c2)ncc1C(=O)NCc1ccc(F)cc1` [Example 17, N-(4-Fluoro-benzyl)-6-(3-fluoro-phenylamino)-4-isopropyl-nicotinamide], for which the EC50 was below 300 nM and the Emax was above 50%.

Regarding `CC(C)c1cc(Nc2ccc(C#N)cc2)ncc1C(=O)NCc1ccc(F)cc1` [Example 18, 6-(4-Cyano-phenylamino)-N-(4-fluoro-benzyl)-4-isopropyl-nicotinamide], the EC50 under setting [1] is below 300 nM.

Take `CC(C)c1cc(Nc2cccc(C#N)c2)ncc1C(=O)NCc1ccc(F)cc1` [Example 19, 6-(3-Cyano-phenylamino)-N-(4-fluoro-benzyl)-4-isopropyl-nicotinamide]: the EC50 under setting [1] was below 300 nM.

Consider `CC(C)c1cc(Nc2ccc(Cl)cc2F)ncc1C(=O)NCc1ccc(F)cc1` [Example 20, 6-(4-Chloro-2-fluoro-phenylamino)-N-(4-fluoro-benzyl)-4-isopropyl-nicotinamide], for which the EC50 is below 300 nM and the Emax is above 50%.
